Test results reported in paper PMC6150205, “Semisynthesis, an Anti-Inflammatory Effect of Derivatives of 1β-Hydroxy Alantolactone from Inula britannica” (Molecules : A Journal of Synthetic Chemistry and Natural …, 2017).

Legend:
Type in all cases: cell-based
[1] = system: LPS-induced NO production in RAW 264.7 macrophages; experiment: Inhibition of LPS-induced NO production in RAW 264.7 macrophages (Griess reagent); conditions: for IC50: LPS-induced RAW 264.7 macrophages, 4 h pretreatment, then 48 h with 2 μg/mL LPS
Procedure: (§1) Then, 100-μL aliquots of the exponentially growing RAW 264.7 cells were seeded in 96-well culture plates at 1 × 10^4 cells/well at 37 °C for overnight in DMEM medium with 0.1% FBS. The culture medium was replaced by fresh free-FBS medium and cells were pretreated with different concentrations (0, 1, 3, 10, 30, 100, 300, 1000 μM) of samples for 4 h. Thereafter, the medium with samples was removed and then incubated for 48 h with or without 2 μg/mL LPS 10% FBS DMEM. The nitrite concentration (NO production) in the culture supernatant was measured using Nitric Oxide assay kit mainly containing Griess reagent. The absorbance was measured at 540 nm using a microplate reader (M5). The amount of NO was calculated from a standard curve created using sodium nitrite with known concentrations. The cell viability was evaluated by SRB colorimetric assay.

[2] = Cytotoxicity / cell viability by SRB colorimetric assay; conditions: mouse, RAW 264.7 cells, inhibition of cell viability of samples-treated RAW264.7 cells
Procedure: as §1

NF-κB = NF-κB luciferase reporter assay in TNF-α-induced RAW264.7 cells; conditions: 8 h treatment, TNF-α 50 ng/mL; for inhibition of the NF-κB pathway (result in words): 1-50 µM; for inhibition at 20 µM: Mus musculus, read-out: NF-κB-luciferase inhibitory percentage
Procedure: RAW 264.7 cells (10,000 cells/well) were placed in a 96-well plate and the cells were then transfected with pNF-κB-Luc expression plasmid using a mixture of plasmid and lipofectamin 2000 PLUS in the Opti-MEM® I Reduced Serum Medium according to manufacturer’s instructions (Life Technologies, Carlsbad, CA, USA). After 12 h, the cells were co-incubated with the active samples (1, 5, 10, 20, 50 µM) and TNF-α. Parthenolide (P) was used as positive control. NF-κB was induced by adding TNF-α (50 ng/mL, delivered in PBS) to the treated wells and the induced control wells. After an additional 8 h, Bright-Glo luciferase reagent (Beyotime) was added to each well (100 μL) and the plate was allowed to stand for two minutes. Luminescence measurements with a relative light unit (RLU) were then obtained using a Fluoroskan Ascent multiple microplate reader (Molecular Device, Sunnyvale, CA, USA). Each experiment was performed in biological triplicate (at minimum) with three technical replicates per experiment.
Figure 3 Compound 1 inhibited TNF-α-induced NF-κB activation by NF-κB-luciferase inhibition assay in RAW264.7 cells. 1 and parthenolide (P, positive control) were dosed to RAW264.7 cells containing a stably transfected NF-κB luciferase reporter and stimulated with TNF-α (50 ng/mL) for 8 h (except for a non-induced control, Non-Ind). […] Mean ± standard deviation values are shown with more than three replicates.

[3] = system: NF-κB p65 and p50 subunit; experiment: Western blotting of p65 and p50 phosphorylation in TNF-α-induced RAW264.7 cells; conditions: 50, 10 and 1 µM, 8 h, TNF-α 50 ng/mL
Procedure: RAW 264.7 cells were seeded in a 24-well plate at 5 × 10^4 cells/well. After cells adherence for overnight, the test compound 1 (50, 10 and 1 µM) or parthenolide (10 µM) and TNF-α (50 ng/mL) were added to the wells and incubated for 8 h. Then, cell pellets were collected and lysed with RIPA lysis buffer containing 0.5 mM phenylmethylsulfonyl fluoride (PMSF) and a protease inhibitor cocktail. The protein concentration of cell samples was analyzed by using the BCA method. Equal amount proteins of each sample were electrophoresed on 12% separating gel and 4% stacking gel and electrotransferred onto an NC membrane. After incubation with appropriate primary and secondary antibodies of p65 and p50, protein blots were detected by using ECL solution and ChemiDoc XRS+ imaging system (Bio-Rad, Hercules, CA, USA). β-actin was used as loading control.  Figure 4 Compound 1 blocks TNF-α-induced NF-κB activation through p65 and p50 phosphorylation in RAW264.7 cells. After treatment with 1 and parthenolide (P) at the indicated concentrations for 8 h, total cell lysates were tested by western blot experiments.

Compound | IC50 ([1]; Mus musculus, RAW264.7) [µM] | IC50 at 4 h [2] [µM] | other results
N=C(N)NN [Aminoguanidine, reference compound] | – | – | IC50 [1]: 10.9 ± 1.5 µM
Cc1ccc(C2=NO[C@]3(C2)C(=O)O[C@@H]2C[C@@]4(C)C(=O)CC[C@H](C)C4=C[C@@H]23)cc1 [Compound 6] | > 1000 | – | –
C[C@@H]1C(=O)O[C@@H]2C[C@]3(C)C(=C[C@H]12)[C@@H](C)CC[C@H]3O [Compound 5] | > 1000 | – | –
C=C1C(=O)O[C@@H]2C[C@]3(C)C(=C[C@H]12)[C@@H](C)CC[C@H]3O [Compound 1, 1β-Hydroxy alantolactone] | 5.61 ± 0.34 | > 50 | potency against NO production relative to 2–4 ([1]; ratio of IC50 values, 1 versus 2–4): 6.5–8.4 fold; inhibition of the NF-κB pathway (result in words) (NF-κB): dose-dependent inhibition; inhibition at 20 µM (NF-κB): 75%; TNF-α-induced phosphorylation of NF-κB p65 and p50 subunit (result in words) [3]: dose-dependently suppressed
C=C1C(=O)O[C@@H]2C[C@]3(C)C(=C[C@H]12)[C@@H](C)CC[C@H]3OC(=O)CCC(=O)O [Compound 4] | 39.6 ± 5.7 | > 50 | –
C=C1C(=O)O[C@@H]2C[C@]3(C)C(=C[C@H]12)[C@@H](C)CC[C@H]3OC(C)=O [Compound 3] | 46.5 ± 5.6 | > 50 | –
C=C1C(=O)O[C@H]2[C@H]1CC/C(C)=C/CC[C@@]1(C)O[C@@H]21 [parthenolide, Parthenolide, reference compound] | – | – | inhibition of the NF-κB pathway (result in words) (NF-κB): comparably potent
C=C1C(=O)O[C@@H]2C[C@@]3(C)C(=O)CC[C@H](C)C3=C[C@H]12 [Compound 2] | 36.1 ± 3.8 | 34.5 ± 5.8 | inhibition at 20 µM (NF-κB): 55%
